# Laboratory results as given in publication PMC10587159, “Biosynthesis and engineering of the nonribosomal peptides with a C-terminal putrescine” (Nature Communications, 2023).
# System: A1 domain of CsA1T1 (GdnA)
# Assay: Adenylation activity of A1 domain (ATP/PPi exchange, pyrophosphate production assay)
# Assay type: biochemical, Schlegelella brevitalea DSM 7029
# Conditions: for relative activity of A1 domain for the activation of amino acids, Average: CsA1T1 1 μM, 10 mM amino acid, 2.5 mM ATP, pH 7.6, A360, L-Met = 100%, mean of n = 3; for selectivity of A1 domain for amino acids in words: response to reviewers on Supplementary Fig. 6a
# Description: For pyrophosphate production assays, the reaction system contains 10 mM amino acid substrates, 2.5 mM ATP (Solarbio), 0.2 mM MESG (Medchemexpress), 1 U/mL purine nucleoside phosphorylase (Shanghai yuanye Bio-Technology Co., Ltd), 0.4 U/mL inorganic pyrophosphatase (Sigma), 150 mM hydroxylamine (Sigma) and 1 μM proteins in 100 μL buffer (50 mM Tris, 300 mM NaCl and 5 mM MgCl2, pH 7.6). The value was read at A360 in a SpectraMax M5 plate reader (Molecular Devices, Sunnyvale, California) in 96 well, clear-bottomed plates (Corning). A360 values were converted to pyrophosphate release, by comparing with a standard curve (KH2PO4 from 2 μM to 128 μM) for known quantities of pyrophosphate.
smiles,measurement,value
N[C@@H](CCC(=O)O)C(=O)O [L-Glu],"relative activity of A1 domain for the activation of amino acids, Average",43.4238%
same,selectivity of A1 domain for amino acids in words,broad selectivity
N[C@@H](Cc1c[nH]cn1)C(=O)O [L-His],"relative activity of A1 domain for the activation of amino acids, Average",1.516%
CC[C@H](C)[C@H](N)C(=O)O [L-Ile],"relative activity of A1 domain for the activation of amino acids, Average",8.11%
same,selectivity of A1 domain for amino acids in words,weaker selectivity
CC(C)C[C@H](N)C(=O)O [L-Leu],"relative activity of A1 domain for the activation of amino acids, Average",48.0078%
NCCCC[C@H](N)C(=O)O [L-Lys],selectivity of A1 domain for amino acids in words,no activity
C[S+]([O-])CC[C@H](N)C(=O)O (stereo partly drawn) [L-MetO],"relative activity of A1 domain for the activation of amino acids, Average",74.5064%
CSCC[C@H](N)C(=O)O [L-Met],"relative activity of A1 domain for the activation of amino acids, Average",100%
N[C@@H](Cc1ccccc1)C(=O)O [L-Phe],"relative activity of A1 domain for the activation of amino acids, Average",16.3434%
N[C@@H](CO)C(=O)O [L-Ser],"relative activity of A1 domain for the activation of amino acids, Average",10.8427%
C[C@@H](O)[C@H](N)C(=O)O [L-Thr],"relative activity of A1 domain for the activation of amino acids, Average",9.697%
N[C@@H](Cc1c[nH]c2ccccc12)C(=O)O [L-Trp],"relative activity of A1 domain for the activation of amino acids, Average",8.022%
CC(C)[C@H](N)C(=O)O [L-Val],"relative activity of A1 domain for the activation of amino acids, Average",4.884%
same,selectivity of A1 domain for amino acids in words,weaker selectivity
